{"source": "patent US20190075797A1", "about": "“Safened Herbicidal compositions containing halauxifen or 4-amino-3-chloro-6-(4-chloro-2-fluoro-3-methoxyphenyl)-5-fluoropyridine-2-carboxylic acid and methods of use thereof in centipedegrass” (Dow AgroSciences LLC, priority 2017, published 2019)", "test_system": "centipedegrass", "conditions": "for centipedegrass injury: dicamba alone, 0 to 10 scale; for Observed Injury: 0-10 scale, 0=no injury, 10=death", "note": "Counter-ions that a name gives are not always drawn. Like-named read-outs stand apart in the source and are kept apart here.", "experimental": "A trial was initiated Apr. […] Research was conducted as a randomized complete block design (4 reps), with plot size equal to 6 square meters (2 meter width and 3 meter length). This provided a roughly 1.5 foot buffer between experimental units for reference. Herbicide treatments were applied within a water carrier volume of 40 gallons/acre. A two inch rainfall occurred 48 hours prior to initiation (April 17). Time to next rainfall: roughly 1 inch fell during the late night hours of the 21st and early morning of 22nd. Centipedegrass was approximately 90% green cover at time of treatment-almost fully transitioned from winter dormancy. […] Turf injury (0-10 scale, 0=no injury, 10=death), color (1-9 scale, 1=brown, 9=dark green), and density (0-100%) were evaluated 5, 8, 13, 23, 29 and 44 days after treatment (DAT). Data were subject to analysis of variance (alpha=0.05). Means separations were estimated using Student Knewman Keul's test (alpha=0.05) within ARM v."}
{"smiles": "COc1c(Cl)ccc(Cl)c1C(=O)O", "note": "[Dicamba MIBPA, N,N-bis(3-aminopropyl)methylamine salt (MIBPA) of dicamba]", "values": [{"measurement": "centipedegrass injury", "setting": "23 DAT, regardless of rate", "result": "< 0.8"}, {"measurement": "centipedegrass injury", "setting": "29 DAT, across all rates", "result": 0}, {"measurement": "Observed Injury", "setting": "Dicamba MIBPA 0.12 lb ae/a alone, 5 DAA", "result": 0.0}, {"measurement": "Observed Injury", "setting": "Dicamba MIBPA 0.12 lb ae/a alone, 8 DAA", "result": 0.0}, {"measurement": "Observed Injury", "setting": "Dicamba MIBPA 0.12 lb ae/a alone, 13 DAA", "result": 0.0}, {"measurement": "Observed Injury", "setting": "Dicamba MIBPA 0.12 lb ae/a alone, 23 DAA", "result": 0.38}, {"measurement": "Observed Injury", "setting": "Dicamba MIBPA 0.12 lb ae/a alone, 29 DAA", "result": 0.00}, {"measurement": "Observed Injury", "setting": "Dicamba MIBPA 0.12 lb ae/a alone, 44 DAA", "result": 0.25}, {"measurement": "Observed Injury", "setting": "Dicamba MIBPA 0.24 lb ae/a alone, 5 DAA", "result": 0.0}, {"measurement": "Observed Injury", "setting": "Dicamba MIBPA 0.24 lb ae/a alone, 8 DAA", "result": 0.0}, {"measurement": "Observed Injury", "setting": "Dicamba MIBPA 0.24 lb ae/a alone, 13 DAA", "result": 0.0}, {"measurement": "Observed Injury", "setting": "Dicamba MIBPA 0.24 lb ae/a alone, 23 DAA", "result": 0.38}, {"measurement": "Observed Injury", "setting": "Dicamba MIBPA 0.24 lb ae/a alone, 29 DAA", "result": 0.00}, {"measurement": "Observed Injury", "setting": "Dicamba MIBPA 0.24 lb ae/a alone, 44 DAA", "result": 0.38}, {"measurement": "Observed Injury", "setting": "Dicamba MIBPA 0.36 lb ae/a alone, 5 DAA", "result": 0.0}, {"measurement": "Observed Injury", "setting": "Dicamba MIBPA 0.36 lb ae/a alone, 8 DAA", "result": 0.0}, {"measurement": "Observed Injury", "setting": "Dicamba MIBPA 0.36 lb ae/a alone, 13 DAA", "result": 0.0}, {"measurement": "Observed Injury", "setting": "Dicamba MIBPA 0.36 lb ae/a alone, 23 DAA", "result": 0.75}, {"measurement": "Observed Injury", "setting": "Dicamba MIBPA 0.36 lb ae/a alone, 29 DAA", "result": 0.00}, {"measurement": "Observed Injury", "setting": "Dicamba MIBPA 0.36 lb ae/a alone, 44 DAA", "result": 0.50}]}
